Laboratory results published in US20260345584A1, “METHODS AND PHARMACEUTICAL COMPOSITIONS FOR TREATING CHEMOTHERAPY-INDUCED PERIPHERAL NEUROPATHY WITH EG5 INHIBITORS” (UNIVERSITY OF MIAMI, priority 2023, published 2026).

Experiments:
[1] = system: HyPer oxidation in keratinocytes; assay: HyPer imaging of H2O2 production upon caudal fin stretch; type: in vivo, zebrafish; settings: wildtype, 3 hr paclitaxel
Method: HyPer fluorescence was measured in the oxidized (505 nm) and unoxidized (420 nm) channels by using the region of interest (ROI) function in ZEN Black (Zeiss) whereby ROIs were selected inside highly magnified mitochondria (HyPer-mito), cytoplasm (HyPer-cyto) or the plasma membrane (HyPer-CAAX). The data was exported, and ratios determined in Excel. H2O2 measurements in zebrafish transiently injected with tp63:Hyper were manually performed by placing spot objects in Imaris 9.5.1 onto individual cells such that the spots extended to the lateral edges. Fluorescence intensities were measured inside the spots and 505 nm/420 nm ratios were subsequently calculated.
The extent of stretch that was induced in wildtype transgenic Tg(tp63:GFP-CAAX) (Lisse et al., 2016, Proceedings of the National Academy of Sciences of the United States of America 113: E2189-2198) fish in which keratinocyte plasma membranes are fluorescently labelled was characterized.
To further investigate whether paclitaxel in combination with stretch alters ROS formation, HyPer imaging was performed.

Eg5 = Eg5 immunofluorescence in zebrafish caudal fin; type: in vivo; settings: 22 μM paclitaxel, 96 hr
Method: The stock solution was divided into 20-30 μl aliquots and stored at −20 °C until use (maximal 6 months). Immediately prior to use, paclitaxel was diluted in Ringer's solution and added to dechorionated larval zebrafish. The larval fish were placed individually or in small groups into wells of a 12-well plate containing the treatment solutions. The control group was 0.05% DMSO. Plates were incubated at 28.5 °C and protected from light. Treatment lengths are indicated in the Drawings, Description of the Drawings, and Examples where appropriate. […] EMD534085, Eg5 inhibitor (MedChemExpress, Cat. No. HY-15000) was diluted in 100% DMSO to make a 10 mM stock solution and stored at −20 °C. […] The solutions were exchanged every 48 hr.
Larval fish were transferred into […] glass vials and fixed in 4% paraformaldehyde (PFA)/1× Phosphate-buffered saline (PBS) for 1.5 hr at room temperature, with gentle rocking. Following a 5-minute incubation in 1×PBS+0.1% Tween-20 (PBST), zebrafish were permeabilized in 1×PBS+0.1% Triton X-100 for 10-30 min. Larval fish were transferred into 2 ml reaction tubes and incubated in blocking buffer (1×PBST+5% BSA) for 30 min at room temperature, with rocking. […]

keratinocyte nuclei = assay: Nuclear volume and sphericity of keratinocytes; type: in vivo, zebrafish; settings: 96 hr, keratinocytes with dfMTs
Method: Nuclear sphericity and volume were calculated in Imaris following 3D rendering of round keratinocyte nuclei using the Surface tool. First, background subtractions were performed, followed by automatic threshold detection. The threshold was adjusted if necessary to fit the nucleus. Thresholds were kept constant for comparisons.
It was expected that dfMTs should be in close proximity to the nucleus in order to activate Nox1 by mechanotransduction. To further confirm this expectation, high resolution imaging and 3D rendering of keratinocyte dfMTs and nuclei were used.

For `CC(=O)O[C@H]1C(=O)[C@@]2(C)[C@H]([C@H](OC(=O)c3ccccc3)[C@]3(O)C[C@H](OC(=O)[C@H](O)[C@@H](NC(=O)c4ccccc4)c4ccccc4)C(C)=C1C3(C)C)[C@]1(OC(C)=O)CO[C@@H]1C[C@@H]2O` [paclitaxel], the “time of peak HyPer oxidation post-stretch” value [1] was 10 to 20 min, the Eg5 localization/induction (Eg5) was “promoted Eg5 puncta formation” and the nuclear volume (keratinocyte nuclei; 22 μM paclitaxel) was 582±83.18 μm3. For the same compound, the “nuclear sphericity (1=spherical vs. 0=nonspherical)” value (keratinocyte nuclei; paclitaxel) was 0.23±0.01.
